Measurements as given in PubChem BioAssay (NCI).
Several values for one entry are separate records, joined by “and”; a condition that tells them apart may be missing. Equal entries are not always repeated.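 Results reflect a 48-hour exposure of cells in 96-well plates to compound at five concentrations. The concentration for 50% growth inhibition is given as GI50. TGI denotes the concentration required for complete inhibition of growth.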

Experiments:
Test in all cases: NCI-60 cell line screen, 48 h
A498 renal = tested on: A498 renal
SR leukemia = tested on: SR leukemia
NCI-H226 lung = tested on: NCI-H226 lung
HCT-15 colon = tested on: HCT-15 colon
SW-620 colon = tested on: SW-620 colon
HCC-2998 colon = tested on: HCC-2998 colon
HOP-92 NSCLC = tested on: HOP-92 NSCLC
SF-295 CNS = tested on: SF-295 CNS
NCI-H23 lung = tested on: NCI-H23 lung
HT29 colon = tested on: HT29 colon

| SMILES | GI50 (A498 renal) [µM] | TGI (A498 renal) | GI50 (SR leukemia) | TGI (SR leukemia) | GI50 (NCI-H226 lung) | TGI (NCI-H226 lung) | GI50 (HCT-15 colon) | TGI (HCT-15 colon) | GI50 (SW-620 colon) | TGI (SW-620 colon) | GI50 (HCC-2998 colon) | TGI (HCC-2998 colon) | GI50 (HOP-92 NSCLC) [µM] | TGI (HOP-92 NSCLC) | GI50 (SF-295 CNS) | TGI (SF-295 CNS) | GI50 (NCI-H23 lung) | TGI (NCI-H23 lung) | GI50 (HT29 colon) [µM] | TGI (HT29 colon) |
| --- | --- | --- | --- | --- | --- | --- | --- | --- | --- | --- | --- | --- | --- | --- | --- | --- | --- | --- | --- | --- |
| O=C1NC(SCc2ccc(F)cc2)=N/C1=C/c1cccc(OCc2ccc(Cl)cc2)c1 | 3.53 | 26.2 µM | 5.05 µM | 76.2 µM | 5.42 µM | > 100 µM | 55.3 µM | > 100 µM | 20 µM | > 100 µM | 51.1 µM | > 100 µM | 67.7 | > 100 µM | 4.97 µM | > 100 µM | 16.9 µM | > 100 µM | > 100 | > 100 µM |
| Nc1cc(-c2ccccc2)n(C(=O)Nc2ccc(Oc3ccccc3)cc2)n1 | > 100 | > 100 µM | 22.2 µM | 43.5 µM | 49.5 µM | > 100 µM | > 100 µM | > 100 µM | > 100 µM | > 100 µM | > 100 µM | > 100 µM | 24.2 | > 100 µM | 40.2 µM | > 100 µM | > 100 µM | > 100 µM | 19.1 | > 100 µM |
| O=C1NN=C(c2ccc([N+](=O)[O-])cc2)C1n1nc(-c2ccccc2)c2ccccc2c1=O (stereo not drawn) | – | > 100 µM | – | > 100 µM | – | > 100 µM | – | > 68.5 µM | – | > 100 µM | – | > 100 µM | – | > 100 µM | – | > 100 µM | – | > 100 µM | – | > 100 µM |
| CNc1ncc2cc(Oc3ccc(F)cc3F)c(=O)n(C)c2n1 | 11.9 | > 25 µM | > 25 µM | > 25 µM | > 25 µM | > 25 µM | > 25 µM | > 25 µM | > 25 µM | > 25 µM | > 25 µM | > 25 µM | 3.82 | > 25 µM | > 25 µM | > 25 µM | > 25 µM | > 25 µM | > 25 | > 25 µM |
| c1ccc(/C(=N\Nc2ccc3ccccc3n2)c2ccccn2)cc1 | 2.92 | 80.4 µM | 0.246 µM | 1.14 µM | 0.534 µM | 5.16 µM | 0.417 µM | 14.8 µM | 0.699 µM | 15.3 µM | 0.904 µM | 16.7 µM | 0.551 | 19.8 µM | 0.211 µM | 2.13 µM | 0.983 µM | 22.8 µM | 0.608 | 26.1 µM |
| c1ccc2c(CN3CCC(C4CCN(Cc5cccc6ccccc56)CC4)CC3)cccc2c1 | 7.34 | > 72.8 µM and 86 µM | 1.47 µM and 10.2 µM | – | 31.7 µM and 96.8 µM | > 100 µM | 2.95 µM and 8.46 µM | 16.6 µM and > 100 µM | 3.02 µM and 11.4 µM | 9.17 µM and 40.1 µM | – | 2.97 µM and 5.61 µM | – | 12 µM and 32.9 µM | – | 19.4 µM and 14.2 µM | 23.2 µM and > 100 µM | > 100 µM | – | 11.7 µM and 11.2 µM |
| Cn1c2ccccc2c2[nH]c3ccccc3c(=O)c21 | – | > 100 µM | – | > 100 µM | – | > 100 µM | – | > 100 µM | – | > 100 µM | – | > 100 µM | – | > 100 µM | – | > 100 µM | – | > 100 µM | – | > 100 µM |
| O=c1[nH]cnc2c1ncn2CCCCO | – | > 100 µM | – | > 100 µM | – | > 100 µM | – | > 100 µM | – | > 100 µM | – | > 100 µM | – | > 100 µM | – | > 100 µM | – | > 100 µM | – | > 100 µM |
| COc1cc2c3cc1Oc1c(OC)c(OC)cc4c1C(Cc1ccc(cc1)Oc1cc(ccc1O)CC3N(C)CC2)N(C)CC4 (stereo not drawn) | – | 32.9 µM | – | 8.98 µM and 7.5 µM | – | 40.6 µM and 37.5 µM | 8.8 µM and 3.19 µM | 23.2 µM and 14.3 µM | – | 22.6 µM and 45.8 µM | 11.7 µM and 2.71 µM | 25 µM and 11.7 µM | – | 38.7 µM and 41.3 µM | 15.4 µM and 7.68 µM | 28.9 µM and 21.4 µM | – | 48.1 µM and 26.3 µM | – | 20.9 µM and 14.1 µM |
| O=S(=O)(N/N=C/c1ccc(Cl)cc1Cl)c1ccccc1 | – | > 100 µM | – | > 100 µM | – | > 100 µM | – | > 100 µM | – | > 100 µM | – | > 100 µM | – | 94.9 µM | – | > 100 µM | – | > 100 µM | – | > 100 µM |
| NCCSC(C[N+](=O)[O-])c1ccccc1Cl (stereo not drawn) | 2.3 | 4.69 µM | 3.05 µM | > 100 µM | 2.28 µM | 5.55 µM | 2.21 µM | 5.97 µM | 1.82 µM | 4.05 µM | 2.1 µM | 4.03 µM | 12.5 | 47.2 µM | 1.5 µM | 3.83 µM | 3.37 µM | 12 µM | 3.15 | 10.9 µM |
| CN(C)N=Nc1nn(C(=O)Nc2ccc(Cc3ccccc3)cc2)c2ccccc12 | > 58.9 | > 100 µM | > 100 µM | > 100 µM | > 100 µM | > 100 µM | 0.396 µM | > 100 µM | 0.199 µM | > 100 µM | 0.802 µM | > 47.7 µM | 6.47 | > 100 µM | 0.225 µM | 3.12 µM | 7.58 µM | > 100 µM | 3.34 | > 100 µM |
| O=C1NC(c2ccccc2)N=C2Oc3ccccc3C=C12 (stereo not drawn) | – | > 81.8 µM | – | > 100 µM | – | 12.8 µM | – | > 100 µM | – | > 100 µM | – | 0.238 µM | – | > 100 µM | – | > 100 µM | – | > 100 µM | – | > 23.6 µM |
| COc1ccc(OC)c(/C=N/N=C2\C(=O)Nc3c(Cl)cc(Cl)cc32)c1 | – | > 100 µM | – | > 100 µM | – | > 100 µM | – | > 100 µM | – | > 100 µM | – | > 100 µM | – | > 100 µM | – | > 100 µM | – | > 100 µM | – | > 100 µM |
| CCOC(=O)C1Oc2ccc([N+](=O)[O-])cc2C1(C)O (stereo not drawn) | – | > 100 µM | – | > 100 µM | – | > 100 µM | – | > 100 µM | – | > 100 µM | – | > 100 µM | – | > 100 µM | – | > 100 µM | – | > 100 µM | – | > 100 µM |
| CCOC(=O)/C=C1\Oc2ccccc2C1(C)O (stereo not drawn) | – | > 100 µM | – | > 100 µM | – | > 100 µM | – | > 100 µM | – | > 100 µM | – | > 100 µM | – | > 100 µM | – | > 100 µM | – | > 100 µM | – | > 100 µM |
